Here are results for nine compounds from DBAASP.

Test in all cases: ≥ marks a high value that may be exact or a test limit, other limits are often not marked, values filed in µg/mL are converted to µM
The test system of experiment [1] is Escherichia coli ATCC 25726.
Experiment [2] has as its system Staphylococcus aureus ATCC 25923.
A further experiment has as its system Acinetobacter baumannii.
For experiment [3], the system named is Candida albicans ATCC 90028.
The subject of experiment [4] is Escherichia coli ATCC 25922.
Experiment [5] relates to Pseudomonas aeruginosa CMCCB 10104.
The subject of experiment [6] is Staphylococcus aureus ATCC 2592.
Experiment [7] relates to Candida albicans ATCC 2002.
The test system of the next experiment is Escherichia coli BW25113.

Structures are written as SMILES. Values after ≈ are worked out from the molar mass of the structure shown.

By MIC is commonly meant the smallest concentration in the dilution series that meets the test's criterion for growth inhibition. A low value points to greater potency. Take `CC[C@H](C)[C@H](NC(=O)[C@H](CCSC)NC(=O)[C@H](C)NC(=O)[C@H](CC(N)=O)NC(=O)[C@H](CCCCN)NC(=O)[C@H](Cc1ccccc1)NC(=O)[C@H](CO)NC(=O)[C@H](CC(=O)O)NC(=O)[C@H](CC(C)C)NC(=O)[C@H](Cc1ccccc1)NC(=O)CN)C(=O)NCC(=O)N[C@H](C(=O)N[C@@H](C)C(=O)N[C@@H](CCCCN)C(=O)N[C@@H](CO)C(=O)N[C@H](C(=O)NCC(=O)N[C@@H](CCCCN)C(=O)N[C@H](C(=O)N[C@@H](C)C(=O)N[C@@H](CC(C)C)C(=O)N[C@@H](CO)C(=O)N[C@H](C(=O)N[C@@H](CC(C)C)C(=O)N[C@@H](C)C(=O)N[C@H]1CSSC[C@@H](C(=O)O)NC(=O)[C@H](CO)NC(=O)[C@H](CCCCN)NC(=O)[C@H](CC(=O)O)NC(=O)[C@H]([C@@H](C)CC)NC(=O)[C@H](CCCCN)NC1=O)[C@@H](C)O)[C@@H](C)O)C(C)C)C(C)C` [GFLDSFKNAMIGVAKSVGKTALSTLACKIDKSC]: the MIC is 18.4 µM (≈ 62.5 µg/mL) in experiment [1] and 36.7 µM (≈ 125 µg/mL) in experiment [2].
As to `CC[C@H](C)[C@H](NC(=O)CN)C(=O)N[C@@H](Cc1c[nH]c2ccccc12)C(=O)N[C@@H](CC(=O)O)C(=O)N[C@H](C(=O)N[C@H](C(=O)N[C@@H](CCCCN)C(=O)N[C@@H](CO)C(=O)N[C@@H](CCSC)C(=O)NCC(=O)N[C@@H](CCCCN)C(=O)N[C@H](C(=O)N[C@@H](Cc1ccccc1)C(=O)N[C@@H](C)C(=O)NCC(=O)N[C@@H](CC(C)C)C(=O)N[C@H](C(=O)N[C@@H](CC(C)C)C(=O)N[C@@H](CCC(N)=O)C(=O)N[C@@H](CC(N)=O)C(=O)N[C@@H](CC(C)C)C(N)=O)[C@@H](C)CC)C(C)C)[C@@H](C)CC)[C@@H](C)O` [GIWDTIKSMGKVFAGLILQNL], the MIC in experiment [1] was at least 100 µM; in experiment [2], 25 µM (≈ 57.6 µg/mL); in the experiment with Acinetobacter baumannii, 25 µM (≈ 57.6 µg/mL); in [3] it was 12.5 µM (≈ 28.8 µg/mL).
Turning to `CC[C@H](C)[C@H](NC(=O)[C@H](CCCCN)NC(=O)[C@H](CO)NC(=O)[C@H](C)NC(=O)[C@H](Cc1c[nH]c2ccccc12)NC(=O)CN)C(=O)NCC(=O)N[C@@H](CCC(N)=O)C(=O)N[C@H](C(=O)N[C@@H](CC(C)C)C(=O)NCC(=O)N[C@@H](CCCCN)C(=O)N[C@@H](CCSC)C(=O)N[C@@H](C)C(=O)N[C@@H](CCCCN)C(=O)N[C@H](C(=O)NCC(=O)N[C@@H](CC(C)C)C(=O)N[C@@H](CCC(N)=O)C(=O)N[C@@H](CCC(=O)O)C(=O)N[C@@H](CC(C)C)C(=O)N[C@H](C(=O)N[C@@H](CCC(N)=O)C(=O)N1CCC[C@H]1C(=O)N[C@@H](CCCCN)C(=O)O)[C@@H](C)CC)C(C)C)[C@@H](C)O` [GWASKIGQTLGKMAKVGLQELIQPK], the MIC was at least 50 µM in experiment [1] and 50 µM (≈ 134 µg/mL) in experiment [2].
Turning to `CC[C@H](C)[C@H](N)C(=O)N[C@@H](CC(C)C)C(=O)NCC(=O)N1CCC[C@H]1C(=O)N[C@H](C(=O)N[C@H](C(=O)N[C@@H](CO)C(=O)N[C@@H](CCCCN)C(=O)N[C@H](C(=O)NCC(=O)NCC(=O)N[C@H](C(=O)N[C@@H](CC(C)C)C(=O)NCC(=O)NCC(=O)N[C@@H](CC(C)C)C(=O)N[C@@H](CC(C)C)C(=O)N[C@@H](CCCCN)C(=O)N[C@@H](CC(N)=O)C(=O)N[C@@H](CC(C)C)C(N)=O)C(C)C)[C@@H](C)CC)[C@@H](C)CC)C(C)C` [ILGPVISKIGGVLGGLLKNL], the MIC in experiment [4] turned out to be 6.12 µM (≈ 12 µg/mL); in experiment [5] it was 6.12 µM (≈ 12 µg/mL); in [6], 3.06 µM (≈ 6 µg/mL); in [7], 3.06 µM (≈ 6 µg/mL).
On to `CC(C)C[C@@H]1NC(=O)[C@H](CCCN=C(N)N)NC(=O)[C@H](CC(C)C)NC(=O)[C@H](CC(C)C)NC(=O)[C@H](Cc2c[nH]c3ccccc23)NC(=O)[C@H](C(C)C)NC(=O)[C@H](Cc2ccc(O)cc2)NC(=O)[C@H](CC(C)C)NC(=O)[C@H](C(C)C)NC(=O)[C@H](CCC(N)=O)NC(=O)[C@@H](NC(=O)[C@H](Cc2ccccc2)NC(=O)[C@H](CC(N)=O)NC(=O)[C@H](CC(N)=O)NC(=O)[C@@H](N)CCCCN)CSSC[C@@H](C(=O)N[C@@H](Cc2ccccc2)C(=O)N[C@H](C(=O)N[C@@H](CCCCN)C(=O)N[C@@H](Cc2ccccc2)C(=O)N[C@@H](CO)C(=O)N[C@@H](CCCCN)C(=O)N[C@@H](CC(=O)O)C(=O)N[C@H](C(=O)N[C@@H](CCC(=O)O)C(=O)N[C@H](C(=O)O)[C@@H](C)O)C(C)C)C(C)C)NC(=O)[C@H](CCC(N)=O)NC(=O)[C@H](CCCCN)NC(=O)CNC1=O` [KNNFCQVLYVWLLRLGKQCFVKFSKDVET], for which the MIC in [2] was above 28.5 µM; in experiment [4] it was above 28.5 µM; in experiment [5] it was 28.5 µM (≈ 99.9 µg/mL); in [7], 28.5 µM (≈ 99.9 µg/mL).
For `CC[C@H](C)[C@H](NC(=O)[C@@H]1CCCN1C(=O)[C@H](CCCN=C(N)N)NC(=O)[C@H](CCCN=C(N)N)NC(=O)[C@H](Cc1ccccc1)NC(=O)[C@@H](N)CCCN=C(N)N)C(=O)N[C@@H](CCCN=C(N)N)C(=O)N[C@@H](CCCN=C(N)N)C(=O)N1CCC[C@H]1C(=O)N1CCC[C@H]1C(=O)N[C@H](C(=O)N[C@@H](CCCN=C(N)N)C(=O)N1CCC[C@H]1C(=O)N1CCC[C@H]1C(=O)N[C@@H](Cc1ccccc1)C(=O)N[C@@H](Cc1ccc(O)cc1)C(=O)N1CCC[C@H]1C(=O)O)[C@@H](C)CC` [RFRRPIRRPPIRPPFYP], the MIC in the experiment on Escherichia coli BW25113 stood at 4 µM (≈ 8.89 µg/mL).
On the same count and under the same terms, for `CC[C@H](C)[C@H](NC(=O)[C@@H]1CCCN1C(=O)[C@H](Cc1c[nH]c2ccccc12)NC(=O)[C@H](CCCN=C(N)N)NC(=O)[C@H](Cc1ccccc1)NC(=O)[C@@H](N)CCCN=C(N)N)C(=O)N[C@@H](CCCN=C(N)N)C(=O)N[C@@H](CCCN=C(N)N)C(=O)N[C@@H](CCCN=C(N)N)C(=O)N1CCC[C@H]1C(=O)N[C@H](C(=O)N[C@@H](CCCN=C(N)N)C(=O)N1CCC[C@H]1C(=O)N1CCC[C@H]1C(=O)N[C@@H](Cc1ccccc1)C(=O)N[C@@H](Cc1ccc(O)cc1)C(=O)N[C@@H](CCCN=C(N)N)C(=O)O)[C@@H](C)CC` [RFRWPIRRRPIRPPFYR] the value was 8 µM (≈ 19 µg/mL).
On the same count and under the same terms, under `CC[C@H](C)[C@H](NC(=O)[C@@H]1CCCN1C(=O)[C@H](CCCN=C(N)N)NC(=O)[C@H](CCCN=C(N)N)NC(=O)[C@H](CCCN=C(N)N)NC(=O)[C@H](Cc1c[nH]c2ccccc12)NC(=O)[C@@H]1CCCN1C(=O)[C@H](CCCN=C(N)N)NC(=O)[C@H](CCCN=C(N)N)NC(=O)[C@H](Cc1c[nH]c2ccccc12)NC(=O)[C@@H](N)CCCN=C(N)N)C(=O)N[C@@H](CCCN=C(N)N)C(=O)N1CCC[C@H]1C(=O)N1CCC[C@H]1C(=O)N[C@@H](Cc1ccccc1)C(=O)N[C@@H](Cc1ccc(O)cc1)C(=O)N[C@@H](CCCN=C(N)N)C(=O)O` [RWRRPWRRRPIRPPFYR] stands 8 µM (≈ 19.6 µg/mL).
In the case of `CC[C@H](C)[C@H](NC(=O)[C@H](CC(C)C)NC(=O)[C@H](CC(C)C)NC(=O)[C@H](CC(=O)O)NC(=O)[C@H](CCCCN)NC(=O)[C@@H](NC(=O)[C@@H](NC(=O)CNC(=O)[C@H](CCSC)NC(=O)[C@@H](NC(=O)[C@@H](N)CO)C(C)C)[C@@H](C)O)C(C)C)C(=O)NCC(=O)N[C@@H](C)C(=O)NCC(=O)N[C@@H](CCCCN)C(=O)N[C@@H](CO)C(=O)N[C@@H](C)C(=O)N[C@@H](C)C(=O)N[C@@H](CCC(N)=O)C(=O)N[C@@H](CO)C(=O)N[C@H](C(=O)N[C@@H](CC(C)C)C(=O)N[C@@H](CCCCN)C(=O)N[C@@H](CO)C(=O)N[C@@H](CC(C)C)C(=O)N[C@@H](CO)C(=O)N[C@H]1CSSC[C@@H](C(=O)O)NC(=O)[C@H](CC(=O)O)NC(=O)[C@H](CC(N)=O)NC(=O)[C@H](CO)NC(=O)[C@H](CC(C)C)NC(=O)[C@H](CCCCN)NC1=O)C(C)C` [SVMGTVKDLLIGAGKSAAQSVLKSLSCKLSNDC], the MIC in [2] was 0.993 µM (≈ 3.3 µg/mL); in [4] it was 1.99 µM (≈ 6.6 µg/mL); in experiment [5] it was 1.99 µM (≈ 6.6 µg/mL); in experiment [7], 0.993 µM (≈ 3.3 µg/mL).
